Here are results for 18 compounds from US12655142B2 (Merck Patent GmbH, priority 2019, dated 2026).

pIC50: −log10 of the molar value.

In general, solubility refers to how much of the substance goes into solution per volume. Lower therefore signals a poorly soluble substance. The term efflux ratio denotes the permeability from basolateral to apical divided by that in the opposite direction, in the common usage.

One data set addresses T1, c-Kit(V654A) (Homo sapiens, UniProt P10721, V654A).
T1 construct: recombinant human c-Kit, amino acids 544-end containing the V654A mutation; GST (N)
The data set is described as follows: c-Kit(V654A) assay (33P-ATP filter binding kinase assay). The data set is classed as biochemical. Particulars: recombinant human c-Kit aa 544-end V654A, ATP 200 μM. The essentials: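 Radiometric filter-binding read-out: substrate 33P incorporation counted by scintillation after P30 filtermat washes in 75 mM phosphoric acid and methanol. Enzyme: N-GST recombinant human c-Kit aa 544-end carrying V654A.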

For data set [1], the target named is T2, GIST430/654 cell line expressing mutated constitutively active cKIT receptor tyrosine kinase (Δ560-576 deletion and V654A point mutation) (Homo sapiens, UniProt P10721, DEL560-576/V654A).
T2 construct: endogenous in cells; host or cells: GIST430/654 cells
T2 sequence (P10721 with tags, fused parts or gaps DEL560-576/V654A): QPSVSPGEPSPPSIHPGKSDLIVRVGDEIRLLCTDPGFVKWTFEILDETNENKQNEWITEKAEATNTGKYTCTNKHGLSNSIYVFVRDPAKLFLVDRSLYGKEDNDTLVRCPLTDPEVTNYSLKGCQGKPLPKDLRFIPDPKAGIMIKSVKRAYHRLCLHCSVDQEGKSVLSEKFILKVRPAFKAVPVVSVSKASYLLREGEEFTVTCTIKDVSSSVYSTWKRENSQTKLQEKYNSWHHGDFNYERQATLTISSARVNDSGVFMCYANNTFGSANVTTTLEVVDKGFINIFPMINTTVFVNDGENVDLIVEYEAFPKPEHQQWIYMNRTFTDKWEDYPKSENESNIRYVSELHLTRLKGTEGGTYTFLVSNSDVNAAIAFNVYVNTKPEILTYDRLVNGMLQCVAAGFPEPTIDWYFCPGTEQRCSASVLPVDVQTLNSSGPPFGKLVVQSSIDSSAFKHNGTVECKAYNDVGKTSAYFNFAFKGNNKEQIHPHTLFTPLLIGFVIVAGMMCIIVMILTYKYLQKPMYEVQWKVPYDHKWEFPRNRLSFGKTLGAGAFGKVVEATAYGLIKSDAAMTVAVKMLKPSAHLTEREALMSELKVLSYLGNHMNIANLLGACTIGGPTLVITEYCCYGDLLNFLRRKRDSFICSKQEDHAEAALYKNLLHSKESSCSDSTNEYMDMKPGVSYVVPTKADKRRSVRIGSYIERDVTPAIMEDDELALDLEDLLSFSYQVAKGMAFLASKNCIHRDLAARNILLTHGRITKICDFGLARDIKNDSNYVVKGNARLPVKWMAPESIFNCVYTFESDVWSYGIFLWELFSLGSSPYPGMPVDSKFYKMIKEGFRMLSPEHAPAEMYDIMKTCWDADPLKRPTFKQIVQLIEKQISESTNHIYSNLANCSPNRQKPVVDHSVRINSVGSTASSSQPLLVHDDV
The experiment in a line: Cellular cKIT autophosphorylation (phospho-Y307-cKIT, Luminex bead assay) in GIST430/654 cells. It counts as cell-based. Particulars: compounds 45 min, read-out: GIST 430/654 IC50. The essentials:
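GIST430 (Δ560-576) and imatinib-resistant GIST430/654 (plus V654A; grown with 100 nM imatinib) cells were plated in IMDM/15% FCS and treated next day with serially diluted compound for 45 min. Lysates were captured on anti-total-cKIT Luminex beads overnight at 4 °C and probed for phospho-Y307. IC50 was taken from percent of 0.3% DMSO control.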

Data set [2] in a line: Determination of solubility. Particulars: 20 mM Sorensen phosphate buffer, pH 7.4, aqueous buffer, kinetic from dmso stock.
Method: In a 96 well filtration plate, 2 μL of a 10 mM solution of the test compound in DMSO is added to 98 μL of 20 mM Sorensen phosphate buffer with pH 7.4. The mixture is incubated at room temperature for 120 min while agitating at 250 rpm followed by centrifugation at 2500 rpm for 3 min. After dilution by a factor of 2, the concentration of the test compound is determined using HPLC/UPLC with detection at a suitable wavelength and by comparison to a corresponding compound standard.
Data set [3] is described as follows: Determination of Efflux-Ratio (ER) in Caco-2 cells. Particulars: human, Caco-2, pH 7.4. A general note: Passage across Caco-2 layers is used to estimate intestinal permeability.
For data set [4], the target named is T3, GIST430 cell line expressing constitutive active cKIT receptor tyrosine kinase (Δ560-576 deletion) (Homo sapiens, UniProt P10721, DEL560-576).
T3 construct: endogenous in cells; host or cells: GIST430 cells
T3 sequence (P10721 with tags, fused parts or gaps DEL560-576): as the sequence (P10721 with tags, fused parts or gaps DEL560-576/V654A) above, with A612V counted along it
The experiment in a line: Cellular cKIT autophosphorylation (phospho-Y307-cKIT, Luminex bead assay) in GIST430 cells. It counts as cell-based. Particulars: cKIT autophosphorylation, GIST430 cells, compounds 45 min; read-out: GIST 430 IC50. Here is the method:
Assay Principle for Cellular Testing of cKIT Mutant Inhibitors
The GIST430 cell line expressing constitutive active cKIT receptor tyrosine kinase (Δ560-576 deletion) and the Imatinib resistant GIST430/654 cell line expressing mutated constitutively active cKIT receptor tyrosine kinase (Δ560-576 deletion and V654A point mutation) were employed for assessing cellular potency of compounds. Cellular activity of mutant cKIT was determined by the degree of cKIT autophosphorylation at tyrosine 307 using a Luminex-based bead assay. GIST430 cells were plated with 22,000 cells per well of a 96-well plate in 100 μl medium (85% IMDM/15% FCS) and GIST430/654 cells were plated with 25,000 cells per well of a 96-well plate in 100 μl medium (85% IMDM/15% FCS supplemented with 100 nM Imatinib). At the following day compounds were added in a serial dilution for 45 min. Then, cells were lysed with 90 μl lysis buffer (20 mM Hepes pH 7.5, 200 mM NaCl, 1.5 mM MgCl2×6H2O, 0.4 mM EDTA, 1% Triton-X-100, 1% Phosphatase-Inhibitor II, 20 mM β-Glycerolphosphat, 0.1% Protease-Inhibitor Cocktail III, 0.01% Benzonase) and lysates were cleared by centrifugation through a 96-well filter plate (0.65 μm). Samples were incubated with Luminex-beads which were coupled with an anti-total cKIT antibody overnight at 4° C. under gentle agitation. For detection of phospho-Y307-cKIT a phosphospecific antibody and a species-specific PE-labeled secondary antibody were added. The amount of phospho-Y307-cKIT was determined in a Luminex 200 instrument measuring 100 events per well within 60 seconds.
Counts from samples treated with compounds were calculated as percent of control from solvent treated (0.3% DMSO) samples. Dose-response curves were fitted and IC50 values were determined using Genedata Screener software.

T1 sequence (P10721 544-976 V654A): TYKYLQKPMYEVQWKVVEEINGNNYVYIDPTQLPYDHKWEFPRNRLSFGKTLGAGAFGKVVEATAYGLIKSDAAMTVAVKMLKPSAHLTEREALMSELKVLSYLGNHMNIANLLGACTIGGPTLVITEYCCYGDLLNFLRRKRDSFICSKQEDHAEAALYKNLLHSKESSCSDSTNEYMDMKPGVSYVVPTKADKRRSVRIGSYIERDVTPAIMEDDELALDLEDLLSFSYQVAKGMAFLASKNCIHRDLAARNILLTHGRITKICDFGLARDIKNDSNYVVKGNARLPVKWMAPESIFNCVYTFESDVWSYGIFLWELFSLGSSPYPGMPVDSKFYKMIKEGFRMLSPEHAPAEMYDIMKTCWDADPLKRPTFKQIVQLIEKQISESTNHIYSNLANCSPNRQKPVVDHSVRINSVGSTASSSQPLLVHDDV

`c1cn(-c2ccc(CNc3cc(-c4cnc5cc(OCC6CCN(C7COC7)CC6)ccn45)ncn3)cc2)nn1` [A83, {6-[7-(1-oxetan-3-yl-piperidin-4-ylmethoxy)-imidazo[1,2-a]pyridin-3-yl]-pyrimidin-4-yl}-(4-[1,2,3]triazol-1-yl-benzyl)-amine]: the results for the pIC50 (on c-Kit(V654A); in data set [1]) were 7.60 and 6.51, respectively. This compound also gave a solubility at 120 min in data set [2] not below 25 µM.

Regarding `Cn1ncc(-c2ccc(CNc3cc(-c4cnc5cc(OCCN6CCCC6)ccn45)ncn3)cc2)n1` [A73, [4-(2-methyl-2H-[1,2,3]triazol-4-yl)-benzyl]-{6-[7-(2-pyrrolidin-1-yl-ethoxy)-imidazo[1,2-a]pyridin-3-yl]-pyrimidin-4-yl}-amine], the figures for the pIC50 (on c-Kit(V654A); in data set [1]) were 8.40 and 7.01, respectively. This compound also yielded a solubility at 120 min in data set [2] not below 25 µM. Also, in data set [3], the efflux ratio at 2 h, 1 μM was less than 15.

On to `c1ccn2c(-c3cc(NCc4ccc(N5CC6CC6C5)nc4)ncn3)cnc2c1` (centres unmarked) [A149, [6-(3-aza-bicyclo[3.1.0]hex-3-yl)-pyridin-3-ylmethyl]-(6-imidazo[1,2-a]pyridin-3-yl-pyrimidin-4-yl)-amine], for which the pIC50 at c-Kit(V654A) is 8.21; in data set [1], 6.57. The solubility at 120 min in data set [2] was not below 25 µM.

Turning to `Cc1cc(N2CCCC2)ncc1CNc1cc(-c2cnc3ccccn23)ncn1` [A154, (6-imidazo[1,2-a]pyridin-3-yl-pyrimidin-4-yl)-(4-methyl-6-pyrrolidin-1-yl-pyridin-3-ylmethyl)-amine], the pIC50 at c-Kit(V654A) was 6.74. In addition, the solubility at 120 min in data set [2] was not below 25 µM.

With `Cn1cc(-c2ccc(CNc3cc(-c4cnc5cc(CCN6CCN(C7COC7)CC6)ccn45)ncn3)cc2)cn1` [A170, [4-(1-methyl-1H-pyrazol-4-yl)-benzyl]-(6-{7-[2-(4-oxetan-3-yl-piperazin-1-yl)-ethyl]-imidazo[1,2-a]pyridin-3-yl}-pyrimidin-4-yl)-amine], the values for the pIC50 (at c-Kit(V654A); in data set [1]) were 7.48 and 6.48, respectively. The compound also registered a solubility at 120 min in data set [2] not below 25 µM.

`CN1CCC(COc2ccn3c(-c4cc(NCc5ccc(-c6cnn(C)n6)cc5)ncn4)cnc3c2)CC1` [A79, {6-[7-(1-methyl-piperidin-4-ylmethoxy)-imidazo[1,2-a]pyridin-3-yl]-pyrimidin-4-yl}-[4-(2-methyl-2H-[1,2,3]triazol-4-yl)-benzyl]-amine]: the pIC50 on c-Kit(V654A) was 8.82; in data set [1] it was 7.55; in data set [4], 8.39. Moreover, the efflux ratio at 2 h, 1 μM in data set [3] was less than 15.

In the case of `Cn1cc(-c2ccc(CNc3cc(-c4cnc5cc(-n6cncn6)ccn45)ncn3)cc2)cn1` [A266, N-{[4-(1-methyl-1H-pyrazol-4-yl)phenyl]methyl}-6-[7-(1H-1,2,4-triazol-1-yl)imidazo[1,2-a]pyridin-3-yl]pyrimidin-4-amine], the values for the pIC50 (on c-Kit(V654A); in data set [1]; in data set [4]) were 8.10, 6.89 and 8.29, respectively. The efflux ratio at 2 h, 1 μM in data set [3] was less than 15.

Turning to `Cn1cc(-c2ccc(CNc3cc(-c4cnc5cc(OCCO)ccn45)ncn3)cc2)cn1` [A172, 2-({3-[6-({[4-(1-methyl-1H-pyrazol-4-yl)phenyl]methyl}amino)pyrimidin-4-yl]imidazo[1,2-a]pyridin-7-yl}oxy)ethan-1-ol], the pIC50 at c-Kit(V654A) is 8.20; in data set [1], 7.12; in data set [4], 8.57. The efflux ratio at 2 h, 1 μM in data set [3] is less than 15.

Regarding `FC1(F)CCN(c2ccc(CNc3cc(-c4cnc5ccccn45)ncn3)cn2)C1` [A150, [6-(3,3-difluoro-pyrrolidin-1-yl)-pyridin-3-ylmethyl]-(6-imidazo[1,2-a]pyridin-3-yl-pyrimidin-4-yl)-amine], the pIC50 is 8.05 at c-Kit(V654A), 6.85 in data set [1] and 7.92 in data set [4]. For the same compound, in data set [3], the efflux ratio at 2 h, 1 μM was less than 15.

On to `COCCOc1ccn2c(-c3cc(NCc4ccc(-n5ccnn5)cc4)ncn3)cnc2c1` [A16, 6-[7-(2-methoxyethoxy)imidazo[1,2-a]pyridin-3-yl]-N-{[4-(1H-1,2,3-triazol-1-yl)phenyl]methyl}pyrimidin-4-amine], for which the pIC50 on c-Kit(V654A) is 8.20; in data set [1], 6.89; in data set [4], 8.38. In addition, the efflux ratio at 2 h, 1 μM in data set [3] is less than 15.

For the compound `c1ccn2c(-c3cc(NCc4ccc(C5=NCCN5)cc4)ncn3)cnc2c1` [A15, [4-(4,5-Dihydro-1H-imidazol-2-yl)-benzyl]-(6-imidazo[1,2-a]pyridin-3-yl-pyrimidin-4-yl)-amine], the pIC50 at c-Kit(V654A) was 6.49. For the same compound, the solubility at 120 min in data set [2] was not below 25 µM.

Take `Cn1cc(-c2ccc(CNc3cc(-c4cnc5cc(OCCCNC6COC6)ccn45)ncn3)cc2)cn1` [A258, N-{[4-(1-methyl-1H-pyrazol-4-yl)phenyl]methyl}-6-(7-{3-[(oxetan-3-yl)amino]propoxy}imidazo[1,2-a]pyridin-3-yl)pyrimidin-4-amine]: the figures for the pIC50 (at c-Kit(V654A); in data set [1]; in data set [4]) were 8.29, 7.25 and 8.57, respectively. Further, the efflux ratio at 2 h, 1 μM in data set [3] is less than 15.

Consider `Cn1ncc(-c2ccc(CNc3cc(-c4cnc5cc(OCCN6CC7(COC7)C6)ccn45)ncn3)cc2)n1` [A108, [4-(2-methyl-2H-[1,2,3]triazol-4-yl)-benzyl]-(6-{7-[2-(2-oxa-6-aza-spiro[3.3]hept-6-yl)-ethoxy]-imidazo[1,2-a]pyridin-3-yl}-pyrimidin-4-yl)-amine], for which the pIC50 at c-Kit(V654A) is 8.48; in data set [1], 7.40; in data set [4] it was 8.82. The efflux ratio at 2 h, 1 μM in data set [3] is less than 15.

Take `Cc1cc(N2CC[C@@H](F)C2)ncc1CNc1cc(-c2cnc3ccccn23)ncn1` [A156, [6-((R)-3-fluoro-pyrrolidin-1-yl)-4-methyl-pyridin-3-ylmethyl]-(6-imidazo[1,2-a]pyridin-3-yl-pyrimidin-4-yl)-amine]: at c-Kit(V654A), the pIC50 is 6.74. The same compound returned a solubility at 120 min in data set [2] not below 25 µM.

Regarding `COc1ccn2c(-c3cc(NCc4ccc(N5CCCCC5=O)cc4)ncn3)cnc2c1` [A12, 1-(4-{[(6-{7-methoxyimidazo[1,2-a]24yridine-3-yl}pyrimidin-4-yl)amino]methyl}phenyl)piperidin-2-one], the pIC50 is 7.06 on c-Kit(V654A) and 5.96 in data set [1]. This compound gave a solubility at 120 min in data set [2] not below 25 µM.

`Cn1cc(-c2ccc(CNc3cc(-c4cnc5cc(N6CCCC6)ccn45)ncn3)cc2)cn1` [A177, [4-(1-methyl-1H-pyrazol-4-yl)-benzyl]-[6-(7-pyrrolidin-1-yl-imidazo[1,2-a]pyridin-3-yl)-pyrimidin-4-yl]-amine]: the pIC50 at c-Kit(V654A) is 7.77; in data set [1], 7.47; in data set [4], 7.82. Moreover, the efflux ratio at 2 h, 1 μM in data set [3] was less than 15.

On to `COc1ccn2c(-c3cc(NCc4ccc(-c5coc(C)n5)cc4)ncn3)cnc2c1` [A42, 6-{7-methoxyimidazo[1,2-a]pyridin-3-yl}-N-{[4-(2-methyl-1,3-oxazol-4-yl)phenyl]methyl}pyrimidin-4-amine], for which the pIC50 on c-Kit(V654A) was 8.89; in data set [1], 7.23; in data set [4] it was 8.74. Also, in data set [3], the efflux ratio at 2 h, 1 μM was less than 15.

In the case of `Cn1ncc(-c2ccc(CNc3cc(-c4cnc5cc(OCC(C)(C)O)ccn45)ncn3)cc2)n1` [A85, 2-methyl-1-(3-{6-[4-(2-methyl-2H-[1,2,3]triazol-4-yl)-benzylamino]-pyrimidin-4-yl}-imidazo[1,2-a]pyridin-7-yloxy)-propan-2-ol], the pIC50 at c-Kit(V654A) was 8.19; in data set [1] it was 7.19; in data set [4] it was 8.48. Moreover, the efflux ratio at 2 h, 1 μM in data set [3] was less than 15.
